{"source": "patent US12459918B2", "about": "“Isoquinolinone derivatives serving as rock protein kinase inhibitors and use thereof” (GUANGZHOU OCUSUN OPHTHALMIC BIOTECHNOLOGY CO., LTD., priority 2019, dated 2025)", "key": {"[1]": {"system": "New Zealand rabbits with normal intraocular pressure", "test": "Intraocular pressure reduction experiment in New Zealand rabbits with normal intraocular pressure", "assay_type": "in vivo", "settings": "for Intraocular pressure in the left eye: 20 mg/mL group, left eye (saline or solvent); for Intraocular pressure in the right eye: 20 mg/mL in right eye; for Reduction magnitude of intraocular pressure: 20 mg/mL, left minus right eye", "excerpt": "Experimental Example 2. Intraocular Pressure Reduction Experiment in New Zealand Rabbits with Normal Intraocular Pressure\nRabbits with normal intraocular pressure were adopted to screen intraocular pressure reduction actions of the potential compounds by eye-drop administration.\nMale New Zealand rabbits, aged 97-127 days, weighted 2.65-3.5 kg, purchased from PizhouDongfang Breeding Co. Ltd.\nThe male New Zealand rabbits were randomly divided into 8 rabbits/per group using a computer-generated randomization method Animals in each group were eye-dropped with different test samples in the right eye, and normal saline or solvent in the left eye, and the volume of the administration was both 50 μL/eye. The intraocular pressure of the animals was measured before administration and in 1, 2, 4, 6, 8 and 10 hours after the administration, respectively."}, "[2]": {"system": "New Zealand rabbits with acute ocular hypertension", "test": "Intraocular pressure reduction experiment in New Zealand rabbits with acute ocular hypertension, experiment operation 1", "assay_type": "in vivo", "settings": "for Intraocular pressure in the left eye: left eye (not modeled); for Intraocular pressure in the right eye: right eye (induced ocular hypertension)", "excerpt": "Experimental Example 3. Intraocular Pressure Reduction Experiment in New Zealand Rabbits with Acute Ocular Hypertension\nAcute ocular hypertension of rabbits were induced by anterior chamber injection of a viscoelastic agent and the intraocular pressure reduction action of compound 60 and compound 63 at different concentrations were explored by eye-drop administration.\nMale New Zealand rabbits, aged 97-127 days, weighted 2.5-3.4 kg, purchased from PizhouDongfang Breeding Co. Ltd.\nMale New Zealand rabbits were randomly divided into 8 rabbits/per group according to body weight using a computer-generated randomization method. The animals in each group were injected with medical sodium hyaluronate gel in the anterior chamber of right eye in a single dose, 100 μL/eye, to induce ocular hypertension. In 5-15 minutes, 3 hours and 6 hours after right eye modeling, both eyes were dropped with a solvent, K-115 or test samples (compound 60 at different concentrations) at a volume of 50 μL/eye and intraocular pressure of the animals was measured before administration and in 1, 2, 4, 6, 8 and 10 hours after administration, respectively."}, "[3]": {"settings": "2.5 mg/mL both eyes, 1 hour after administration"}, "[4]": {"settings": "2.5 mg/mL both eyes, 2 hours after administration"}, "[5]": {"settings": "2.5 mg/mL both eyes, 4 hours after administration"}, "[6]": {"settings": "2.5 mg/mL both eyes, 6 hours after administration"}, "[7]": {"settings": "2.5 mg/mL both eyes, 8 hours after administration"}, "[8]": {"settings": "2.5 mg/mL both eyes, 10 hours after administration"}, "[9]": {"settings": "2.5 mg/mL both eyes, before administration"}, "[10]": {"settings": "5.0 mg/mL both eyes, 1 hour after administration"}, "[11]": {"settings": "5.0 mg/mL both eyes, 2 hours after administration"}, "[12]": {"settings": "5.0 mg/mL both eyes, 4 hours after administration"}, "[13]": {"settings": "5.0 mg/mL both eyes, 6 hours after administration"}, "[14]": {"settings": "5.0 mg/mL both eyes, 8 hours after administration"}, "[15]": {"settings": "5.0 mg/mL both eyes, 10 hours after administration"}, "[16]": {"settings": "5.0 mg/mL both eyes, before administration"}, "[17]": {"settings": "10 mg/mL both eyes, 1 hour after administration"}, "[18]": {"settings": "10 mg/mL both eyes, 2 hours after administration"}, "[19]": {"settings": "10 mg/mL both eyes, 4 hours after administration"}, "[20]": {"settings": "10 mg/mL both eyes, 6 hours after administration"}, "[21]": {"settings": "10 mg/mL both eyes, 8 hours after administration"}, "[22]": {"settings": "10 mg/mL both eyes, 10 hours after administration"}, "[23]": {"settings": "10 mg/mL both eyes, before administration"}}, "data": [{"smiles": "Cc1cn(COC(=O)c2ccccc2)c(=O)c2cccc(S(=O)(=O)N3CCC(N)C3)c12", "note": "(stereo not shown) [Compound 60]", "values": [{"measurement": "Intraocular pressure in the left eye", "setting": "[1]; 1 hour after administration", "value": 12.42, "unit": "mmHg"}, {"measurement": "Intraocular pressure in the left eye", "setting": "[1]; 2 hours after administration", "value": 12.96, "unit": "mmHg"}, {"measurement": "Intraocular pressure in the left eye", "setting": "[1]; 4 hours after administration", "value": 13.17, "unit": "mmHg"}, {"measurement": "Intraocular pressure in the left eye", "setting": "[1]; 6 hours after administration", "value": 12.54, "unit": "mmHg"}, {"measurement": "Intraocular pressure in the left eye", "setting": "[1]; 8 hours after administration", "value": 13.17, "unit": "mmHg"}, {"measurement": "Intraocular pressure in the left eye", "setting": "[1]; 10 hours after administration", "value": 13.71, "unit": "mmHg"}, {"measurement": "Intraocular pressure in the left eye", "setting": "[1]; before administration", "value": 12.63, "unit": "mmHg"}, {"measurement": "Intraocular pressure in the right eye", "setting": "[1]; 1 hour after administration", "value": 10.21, "unit": "mmHg"}, {"measurement": "Intraocular pressure in the right eye", "setting": "[1]; 2 hours after administration", "value": 7.17, "unit": "mmHg"}, {"measurement": "Intraocular pressure in the right eye", "setting": "[1]; 4 hours after administration", "value": 7.92, "unit": "mmHg"}, {"measurement": "Intraocular pressure in the right eye", "setting": "[1]; 6 hours after administration", "value": 7.63, "unit": "mmHg"}, {"measurement": "Intraocular pressure in the right eye", "setting": "[1]; 8 hours after administration", "value": 8.83, "unit": "mmHg"}, {"measurement": "Intraocular pressure in the right eye", "setting": "[1]; 10 hours after administration", "value": 10.83, "unit": "mmHg"}, {"measurement": "Intraocular pressure in the right eye", "setting": "[1]; before administration", "value": 12.42, "unit": "mmHg"}, {"measurement": "Reduction magnitude of intraocular pressure", "setting": "[1]; 1 hour after administration", "value": 2.21, "unit": "mmHg"}, {"measurement": "Reduction magnitude of intraocular pressure", "setting": "[1]; 2 hours after administration", "value": 5.79, "unit": "mmHg"}, {"measurement": "Reduction magnitude of intraocular pressure", "setting": "[1]; 4 hours after administration", "value": 5.25, "unit": "mmHg"}, {"measurement": "Reduction magnitude of intraocular pressure", "setting": "[1]; 6 hours after administration", "value": 4.91, "unit": "mmHg"}, {"measurement": "Reduction magnitude of intraocular pressure", "setting": "[1]; 8 hours after administration", "value": 4.34, "unit": "mmHg"}, {"measurement": "Reduction magnitude of intraocular pressure", "setting": "[1]; 10 hours after administration", "value": 2.88, "unit": "mmHg"}, {"measurement": "Reduction magnitude of intraocular pressure", "setting": "[1]; before administration", "value": 0.21, "unit": "mmHg"}, {"measurement": "Reduction of intraocular pressure", "setting": "[1]; concentrations of 2.5, 5 and 10 mg/mL", "value": "remarkably significant reduction of intraocular pressure"}, {"measurement": "Intraocular pressure in the left eye", "setting": "[2]; [3]", "value": 5.00, "unit": "mmHg"}, {"measurement": "Intraocular pressure in the left eye", "setting": "[2]; [4]", "value": 6.63, "unit": "mmHg"}, {"measurement": "Intraocular pressure in the left eye", "setting": "[2]; [5]", "value": 8.29, "unit": "mmHg"}, {"measurement": "Intraocular pressure in the left eye", "setting": "[2]; [6]", "value": 10.71, "unit": "mmHg"}, {"measurement": "Intraocular pressure in the left eye", "setting": "[2]; [7]", "value": 12.17, "unit": "mmHg"}, {"measurement": "Intraocular pressure in the left eye", "setting": "[2]; [8]", "value": 12.00, "unit": "mmHg"}, {"measurement": "Intraocular pressure in the left eye", "setting": "[2]; [9]", "value": 12.00, "unit": "mmHg"}, {"measurement": "Intraocular pressure in the right eye", "setting": "[2]; [3]", "value": 22.33, "unit": "mmHg"}, {"measurement": "Intraocular pressure in the right eye", "setting": "[2]; [4]", "value": 19.75, "unit": "mmHg"}, {"measurement": "Intraocular pressure in the right eye", "setting": "[2]; [5]", "value": 20.29, "unit": "mmHg"}, {"measurement": "Intraocular pressure in the right eye", "setting": "[2]; [6]", "value": 17.00, "unit": "mmHg"}, {"measurement": "Intraocular pressure in the right eye", "setting": "[2]; [7]", "value": 14.54, "unit": "mmHg"}, {"measurement": "Intraocular pressure in the right eye", "setting": "[2]; [8]", "value": 12.54, "unit": "mmHg"}, {"measurement": "Intraocular pressure in the right eye", "setting": "[2]; [9]", "value": 12.54, "unit": "mmHg"}, {"measurement": "Intraocular pressure in the left eye", "setting": "[2]; [10]", "value": 4.96, "unit": "mmHg"}, {"measurement": "Intraocular pressure in the left eye", "setting": "[2]; [11]", "value": 5.96, "unit": "mmHg"}, {"measurement": "Intraocular pressure in the left eye", "setting": "[2]; [12]", "value": 8.29, "unit": "mmHg"}, {"measurement": "Intraocular pressure in the left eye", "setting": "[2]; [13]", "value": 11.21, "unit": "mmHg"}, {"measurement": "Intraocular pressure in the left eye", "setting": "[2]; [14]", "value": 11.46, "unit": "mmHg"}, {"measurement": "Intraocular pressure in the left eye", "setting": "[2]; [15]", "value": 11.75, "unit": "mmHg"}, {"measurement": "Intraocular pressure in the left eye", "setting": "[2]; [16]", "value": 11.75, "unit": "mmHg"}, {"measurement": "Intraocular pressure in the right eye", "setting": "[2]; [10]", "value": 21.00, "unit": "mmHg"}, {"measurement": "Intraocular pressure in the right eye", "setting": "[2]; [11]", "value": 16.29, "unit": "mmHg"}, {"measurement": "Intraocular pressure in the right eye", "setting": "[2]; [12]", "value": 16.75, "unit": "mmHg"}, {"measurement": "Intraocular pressure in the right eye", "setting": "[2]; [13]", "value": 14.88, "unit": "mmHg"}, {"measurement": "Intraocular pressure in the right eye", "setting": "[2]; [14]", "value": 13.08, "unit": "mmHg"}, {"measurement": "Intraocular pressure in the right eye", "setting": "[2]; [15]", "value": 11.25, "unit": "mmHg"}, {"measurement": "Intraocular pressure in the right eye", "setting": "[2]; [16]", "value": 11.25, "unit": "mmHg"}, {"measurement": "Intraocular pressure in the left eye", "setting": "[2]; [17]", "value": 4.63, "unit": "mmHg"}, {"measurement": "Intraocular pressure in the left eye", "setting": "[2]; [18]", "value": 5.50, "unit": "mmHg"}, {"measurement": "Intraocular pressure in the left eye", "setting": "[2]; [19]", "value": 9.25, "unit": "mmHg"}, {"measurement": "Intraocular pressure in the left eye", "setting": "[2]; [20]", "value": 10.79, "unit": "mmHg"}, {"measurement": "Intraocular pressure in the left eye", "setting": "[2]; [21]", "value": 11.75, "unit": "mmHg"}, {"measurement": "Intraocular pressure in the left eye", "setting": "[2]; [22]", "value": 12.13, "unit": "mmHg"}, {"measurement": "Intraocular pressure in the left eye", "setting": "[2]; [23]", "value": 12.13, "unit": "mmHg"}, {"measurement": "Intraocular pressure in the right eye", "setting": "[2]; [17]", "value": 19.83, "unit": "mmHg"}, {"measurement": "Intraocular pressure in the right eye", "setting": "[2]; [18]", "value": 17.46, "unit": "mmHg"}, {"measurement": "Intraocular pressure in the right eye", "setting": "[2]; [19]", "value": 15.00, "unit": "mmHg"}, {"measurement": "Intraocular pressure in the right eye", "setting": "[2]; [20]", "value": 12.33, "unit": "mmHg"}, {"measurement": "Intraocular pressure in the right eye", "setting": "[2]; [21]", "value": 11.25, "unit": "mmHg"}, {"measurement": "Intraocular pressure in the right eye", "setting": "[2]; [22]", "value": 12.08, "unit": "mmHg"}, {"measurement": "Intraocular pressure in the right eye", "setting": "[2]; [23]", "value": 12.08, "unit": "mmHg"}]}]}
